Measured values: patent US20250099420A1, “SMALL MOLECULE MODULATORS OF GPR139 COMPLEX” (University of Florida Research Foundation, Incorporated, priority 2022, published 2025)
Like-named read-outs stand apart in the source and are kept apart here.

Tests used:
parental HEK cells = experiment: HEK parental Agonist Counterscreen Assay (non-transfected cells); assay type: cell-based; details: for Averaged Max % Response (±St. Dev.): activity relative to known control
Description: The high control for the agonist counterscreen was Forskolin not acetylcholine.

GPR139 = biological target: T1, GPR139 (Homo sapiens, UniProt Q6DWJ6); experiment: GPR139 Agonist titration / agonist counterscreen assay (calcium detection, HEK-GPR139 cells); assay type: cell-based; set-up: expressed in transfected cells; host or cells: HEK Aequorin cells, Maxcyte transient transfection; details: GPR139 Agonist Activity; for Averaged Max % Response (±St. Dev.): activity relative to known control; for EC50: read-out: EC50
T1 sequence (Q6DWJ6 1-353): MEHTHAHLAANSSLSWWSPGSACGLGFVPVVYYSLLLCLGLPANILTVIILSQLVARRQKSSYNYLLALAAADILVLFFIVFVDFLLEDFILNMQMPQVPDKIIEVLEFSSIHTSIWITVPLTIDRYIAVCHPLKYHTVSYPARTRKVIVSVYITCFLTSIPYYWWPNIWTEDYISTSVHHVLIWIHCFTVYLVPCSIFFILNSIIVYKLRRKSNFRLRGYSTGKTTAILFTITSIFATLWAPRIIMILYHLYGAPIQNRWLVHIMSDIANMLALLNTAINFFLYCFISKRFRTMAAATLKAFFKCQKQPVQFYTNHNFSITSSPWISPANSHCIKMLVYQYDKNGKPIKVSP
Description: GPR activity was assessed using a calcium detection assay. […] Negative control samples were treated with DMSO. […] Intracellular calcium was measured using Calcium 5.

[1] = Homo sapiens, HEK293, HEK Agonist Activity section of Table 4 (parental HEK counterscreen)
[2] = values printed in E-notation without unit
[3] = HEK Agonist Activity section of Table 4 (parental HEK counterscreen)
[4] = Homo sapiens, HEK293, HEK Agonist Activity, parental non-transfected HEK cells

Compound | Lipophilic Efficiency (logD) (parental HEK cells; HEK Agonist Activity section) | Lipophilic Efficiency (logP) (parental HEK cells; HEK Agonist Activity section) | Averaged Max % Response (±St. Dev.) (parental HEK cells; HEK Agonist Activity section) | EC50 (parental HEK cells; [1]) | Averaged Max % Response (±St. Dev.) (GPR139) | Lipophilic Efficiency (logD) (GPR139; based on logD) | Lipophilic Efficiency (logP) (GPR139; based on logP) | Hill Slope (GPR139; fitted dose-response curve) | Efficiency Ligand (GPR139; ligand efficiency) | EC50 (GPR139; [2]) | EC50 (parental HEK cells; [3]) | Lipophilic Efficiency (logD) (parental HEK cells; HEK Agonist Activity) | Lipophilic Efficiency (logP) (parental HEK cells; HEK Agonist Activity) | Averaged Max % Response (±St. Dev.) (parental HEK cells; HEK Agonist Activity) | EC50 (parental HEK cells; [4]) | Efficiency Ligand (GPR139) | Hill Slope (GPR139) | Lipophilic Efficiency (logD) (GPR139) | Lipophilic Efficiency (logP) (GPR139) | EC50 (GPR139; HEK-GPR139 cells)
COc1ccc(CC(=O)NNC(=O)C(C)Oc2ccc(Cl)cc2Cl)cc1 (centres unmarked) [SR-01000361779] | 1.53 | 1.50 | 9.57 ± 4.06% | > 14100 nM | 89.14 ± 2.93% | 3.38 | 3.35 | 0.85 | 0.36 | 197 nM | – | – | – | – | – | – | – | – | – | –
O=C(CCCOc1ccc(Cl)cc1Cl)NNC(=O)Cc1ccc2c(c1)OCCO2 [SR-01000065653] | 1.88 | 1.87 | −8.07 ± 6.14% | – | 89.15 ± 7.00% | 4.06 | 4.05 | 1.10 | 0.34 | 94.4 nM | > 14100 nM | – | – | – | – | – | – | – | – | –
CCCCn1c(C)c(N(CC)C(=O)C(C)(C)Oc2ccc(C)cc2)c(=O)[nH]c1=O [SR-01000071222] | – | – | – | – | 126.32 ± 18.07% | 5.83 | 5.82 | – | 0.42 | – | – | 2.01 | 2.01 | 4.62 ± 5.04% | > 14700 nM | – | – | – | – | –
O=C(NCCS(=O)(=O)N1CCc2ccccc2C1)C(c1ccccc1)c1ccccc1 [SR-01000911742] | 1.49 | 1.49 | −12.80 ± 5.17% | > 14100 nM | 93.88 ± 11.00% | – | – | – | – | – | – | – | – | – | – | 0.25 | 0.32 | 2.28 | 2.28 | 2300 nM
O=C(CN1C(=O)NC2(CCCc3ccccc32)C1=O)N1CCCCCC1 (centres unmarked) [SR-01000075116] | 2.72 | 2.72 | 4.31 ± 1.95% | – | 81.52 ± 3.66% | 4.72 | 4.72 | 0.99 | 0.37 | 142 nM | > 14300 nM | – | – | – | – | – | – | – | – | –
Cc1ccc2c(c1)-c1c(cnn1CC(=O)Nc1ccccn1)CO2 [SR-01000152429] | 2.49 | 2.49 | −0.18 ± 21.55% | – | 109.51 ± 16.91% | 4.53 | 4.53 | 1.07 | 0.40 | 128 nM | > 14100 nM | – | – | – | – | – | – | – | – | –
Cc1nc(CNC(=O)CCC2(Cc3cccc4ccccc34)CCC(=O)N2)cs1 (centres unmarked) [SR-01000187393] | 2.44 | 2.44 | 6.35 ± 6.79% | > 14100 nM | 99.15 ± 6.04% | 4.29 | 4.29 | 0.44 | 0.32 | 196 nM | – | – | – | – | – | – | – | – | – | –
O=C(CCc1nc2ccccc2s1)NNC(=O)C1CCCCC1 [SR-01000068916] | 2.04 | 2.04 | 19.72 ± 5.30% | > 15300 nM | 118.50 ± 16.12% | 4.23 | 4.23 | 0.84 | 0.43 | 98.9 nM | – | – | – | – | – | – | – | – | – | –
COc1ccc(CCNC(=O)COc2ccc(Cl)cc2Cl)cc1 [SR-01000412367] | – | – | – | – | 112.23 ± 25.44% | 4.43 | 4.43 | 0.32 | 0.50 | 6.2 nM | – | 1.11 | 1.11 | 5.28 ± 6.57% | > 13000 nM | – | – | – | – | –
CCCc1ccccc1C1=CCC(NC(=O)Cn2ncc3c2-c2ccccc2CC3)=C1 [SR-01000135037] | 1.70 | 1.69 | −6.83 ± 12.52% | > 14100 nM | 95.23 ± 13.49% | 3.95 | 3.94 | 1.23 | 0.32 | – | – | – | – | – | – | – | – | – | – | –
CC(CCc1ccccc1)NC(=O)Cn1ncc2c1-c1ccccc1OC2 (centres unmarked) [SR-01000134913] | 1.52 | 1.52 | −5.82 ± 11.13% | > 14100 nM | 96.78 ± 14.90% | – | – | – | – | – | – | – | – | – | – | 0.31 | 0.51 | 2.73 | 2.73 | 863 nM
O=C(Cn1nc(Cc2ccncc2)c2ccccc2c1=O)NC(O)CCc1ccccc1 (centres unmarked) [SR-01000134029] | – | – | – | – | 100.82 ± 13.50% | 4.27 | 4.27 | – | 0.34 | – | – | 1.41 | 1.41 | 19.31 ± 4.61% | > 14100 nM | – | – | – | – | –
CCN(Cc1ccccc1)C(=O)Cn1cnc2sc(O)c(C)c2c1=O [SR-01000468553] | 1.48 | 1.48 | 35.00 ± 2.11% | > 18500 nM | 109.12 ± 32.80% | – | – | – | – | – | – | – | – | – | – | 0.36 | 0.84 | 3.11 | 3.11 | 437 nM
